Reference: US20140357633A1, “COMPOUNDS FOR INHIBITING THE INTERACTION OF BCL2 WITH BINDING PARTNERS” (NOVARTIS AG, priority 2011, published 2014)
“And” between values parts separate entries of the source, which are not always exact repeats. Equal entries are not always repeated.

Experiments:
[1] = target: BCL-2 (binding to BAK peptide) (Homo sapiens, UniProt P10415); assay: SPR (Biacore) solution inhibition assay, BCL-2 binding to immobilized BAK peptide; settings: biotinylated BAK peptide surface, 56 nM BCL-2, 25° C.; range = high and low IC50 values from multiple experiments; read-out: BCL2_SPR IC50 BAK
Chain of BCL-2 (binding to BAK peptide) (P10415 whole entry): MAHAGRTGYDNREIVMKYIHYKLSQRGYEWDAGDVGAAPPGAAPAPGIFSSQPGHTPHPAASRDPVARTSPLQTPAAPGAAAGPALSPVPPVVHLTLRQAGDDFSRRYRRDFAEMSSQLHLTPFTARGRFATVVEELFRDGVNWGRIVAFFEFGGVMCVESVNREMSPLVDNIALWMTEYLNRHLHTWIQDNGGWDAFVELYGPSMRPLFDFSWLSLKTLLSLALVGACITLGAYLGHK
Excerpt: (§1) The present method includes utility of a Surface plasmon resonance (SPR)-based biosensor (Biacore™′ GE Healthcare, Uppsala, Sweden) to characterize BCL-2 inhibitors.
(§2) Biacore™ utilizes the phenomenon of surface plasmon resonance (SPR) to detect and measure binding interactions. In a typical Biacore experiment, one of the interacting molecules (ligand) is immobilized on a flexible dextran matrix while the interacting partner (analyte) is allowed to flow across that surface. A binding interaction results in an increase in mass on the sensor surface and a corresponding direct change in the refractive index of the medium in the vicinity of the sensor surface. Changes in refractive index or signal are recorded in resonance units (R.U.) Signal changes due to association and dissociation of complexes are monitored in a non-invasive manner, continuously and in real-time, the results of which are reported in the form of a sensorgram.
(§3) The SPR assay is configured to examine solution inhibition of BCL-2 binding to peptide derivatized sensor surfaces to generate IC50 values as a measure of inhibitor potency.
(§4) Biacore™ A100 (GE Healthcare, Uppsala, Sweden) was used to conduct all experiments reported herein. Sensor surface preparation and all interaction analyses experiments were performed at 25° C. Reagents were purchased from GE Healthcare. Running buffer containing 10 mM Hepes, pH7.4, 150 mM sodium chloride, 1.25 mM Dithiothreitol, 3% Dimethyl sulfoxide and 0.05% polysorbate 20 were utilized throughout all analyses.
(§5) Biotinylated BAK, BAD and NOXA peptides were diluted to 10 nM in running buffer and captured onto a sensor surface pre-derivatized with streptavidin (sensor chip SA) to peptide surface densities in the range 50-100 R.U. Peptide captured surfaces were blocked with 500 μM PEO2-Biotin.
(§6) Interaction analyses were performed by first equilibrating each sample within a 6 point three fold compound dilution series in the range 16 μM to […] with 56 nM BCL-2 for one hour during instrument start-up procedures. Protein compound mixtures were then injected over each peptide surface in parallel for 60 seconds at a flow-rate of 30 μL/min. 56 nM BCL-2 control samples were also prepared and run at regular intervals during the assay. Surface regeneration was performed at the end of each analysis cycle by two 30 second injections of 10 mM Glycine, pH 2.5, 1M Sodium Chloride, 0.05% polysorbate 20. Samples and control compound samples were run in duplicate and controls are also run at regular intervals during the assay to monitor surface and assay performance.
(§7) Data analyses are carried out using Biacore™ A100 evaluation software v1.1 to validate assay quality. Binding level report points were used relative to BCL-2 control samples to calculate % inhibition values for each compound protein mixture. […] The range of data shown in table 1 represents the high and low IC50 values obtained from multiple experiments.

[2] = target: BCL-2 (binding to BAD peptide) (Homo sapiens, UniProt P10415); assay: SPR (Biacore) solution inhibition assay, BCL-2 binding to immobilized BAD peptide; settings: biotinylated BAD peptide surface, 56 nM BCL-2, 25° C.; range = high and low IC50 values from multiple experiments; read-out: BCL2_SPR IC50 BAD
Chain of BCL-2 (binding to BAD peptide) (P10415 whole entry): as above
Excerpt: as §1, §2, §3, §4, §5, §6, §7

SMILES	IC50 [1]	IC50 [2]
CCCCN(CCCC)C(=O)c1cc(C)n(-c2ccc(NC(=O)COc3ccc4ccccc4c3)cc2C(=O)N2Cc3ccccc3C[C@H]2CO)n1 [Example 126]	48.8 to 50.5 nM	60 to 61.4 nM
CCCCN(CCCC)C(=O)c1cc(C)n(-c2ccc(NC(=O)Cc3ccc(OC)c(Cl)c3)cc2C(=O)N2Cc3ccccc3C[C@H]2CO)n1 [Example 96]	71.2 to 76 nM	86.2 to 91.5 nM
CCCCN(CCCC)C(=O)c1cc(C)n(-c2ccc(NC(=O)c3cn4cc(Cl)ccc4n3)cc2C(=O)N2Cc3ccccc3C[C@H]2CO)n1 [Example 43]	416 to 491 nM	527 to 597 nM
CCCCN(CCCC)C(=O)c1cc(C)n(-c2ccc(NC(=O)c3sccc3C)cc2C(=O)N2Cc3ccccc3C[C@H]2CO)n1 [Example 81]	1040 to 1490 nM	1420 to 1460 nM
CCCCN(CCCC)C(=O)c1cc(C)n(-c2ccc(NC(=O)CCc3cn4cccnc4n3)cc2C(=O)N2Cc3ccccc3C[C@H]2CO)n1 [Example 79]	299 to 351 nM	369 to 398 nM
CCCCN(CCCC)C(=O)c1cc(C)n(-c2ccc(NC(=O)CCCOCc3ccccc3)cc2C(=O)N2Cc3ccccc3C[C@H]2CO)n1 [Example 133]	310 to 360 nM	410 to 438 nM
CCCCN(CCCC)C(=O)c1cc(C)n(-c2ccc(NC(=O)c3cccc(-c4ccccc4F)c3)cc2C(=O)N2Cc3ccccc3C[C@H]2CO)n1 [Example 140]	275 to 287 nM	315 to 343 nM
CCCCN(CCCC)C(=O)c1cc(C)n(-c2ccc(NC(=O)c3ccc(-c4ccc(OC)cc4)[nH]c3=O)cc2C(=O)N2Cc3ccccc3C[C@H]2CO)n1 [Example 156]	1830 to 2380 nM	1740 to 1800 nM
CCCCN(CCCC)C(=O)c1cc(C)n(-c2ccc(NC(=O)CSc3cc(C)c(Cl)cc3Cl)cc2C(=O)N2Cc3ccccc3C[C@H]2CO)n1 [Example 129]	70.7 to 77.1 nM	89.5 to 92.9 nM
CCCCN(CCCC)C(=O)c1cc(C)n(-c2ccc(NC(=O)CCC(=O)O)cc2C(=O)N2Cc3ccccc3C[C@H]2CO)n1 [Example 17]	153 to 175 nM	216 to 250 nM
CCCCN(CCCC)C(=O)c1cc(C)n(-c2ccc(NC(=O)C(C)CC(=O)O)cc2C(=O)N2Cc3ccccc3C[C@H]2CO)n1 (stereo partly drawn) [Example 37]	127 to 129 nM	172 to 174 nM
CCCCN(CCCC)C(=O)c1cc(C)n(-c2ccc(NC(=O)c3cc4cc(O)ccc4[nH]3)cc2C(=O)N2Cc3ccccc3C[C@H]2CO)n1 [Example 87]	486 to 509 nM	350 to 375 nM
CCCCN(CCCC)C(=O)c1cc(C)n(-c2ccc(NC(=O)C(CC(=O)N(C)C)c3ccccc3)cc2C(=O)N2Cc3ccccc3C[C@H]2CO)n1 (stereo partly drawn) [Example 99]	111 to 144 nM	130 to 171 nM
CCCCN(CCCC)C(=O)c1cc(C)n(-c2ccc(NC(=O)C(CC#N)c3ccccc3)cc2C(=O)N2Cc3ccccc3C[C@H]2CO)n1 (stereo partly drawn) [Example 135]	107 to 111 nM	129 to 140 nM
CCCCN(CCCC)C(=O)c1cc(C)n(-c2ccc(NC(=O)c3cc(OC)ccc3O)cc2C(=O)N2Cc3ccccc3C[C@H]2CO)n1 [Example 153]	393 to 448 nM	438 to 511 nM
CCCCN(CCCC)C(=O)c1cc(C)n(-c2ccc(NC(=O)C(CCO)c3ccccc3)cc2C(=O)N2Cc3ccccc3C[C@H]2CO)n1 (stereo partly drawn) [Example 105]	89.4 to 94.3 nM	114 to 119 nM
CCCCN(CCCC)C(=O)c1cc(C)n(-c2ccc(NC(=O)C(C)c3ccccc3)cc2C(=O)N2Cc3ccccc3C[C@H]2CO)n1 (stereo partly drawn) [Example 29]	181 to 191 nM	162 to 183 nM
CCCCN(CCCC)C(=O)c1cc(C)n(-c2ccc(NC(=O)c3ccc(Oc4ccc(F)cc4)cc3)cc2C(=O)N2Cc3ccccc3C[C@H]2CO)n1 [Example 91]	3740 to 4130 nM	> 16000 nM

SMILES	IC50 [1]	IC50 [2]
CCCCN(CCCC)C(=O)c1cc(C)n(-c2ccc(NC(=O)COc3ccc([N+](=O)[O-])cc3)cc2C(=O)N2Cc3ccccc3C[C@H]2CO)n1 [Example 21]	1950 to 2170 nM	2390 to 2670 nM
CCCCN(CCCC)C(=O)c1cc(C)n(-c2ccc(NC(=O)OCC)cc2C(=O)N2Cc3ccccc3C[C@H]2CO)n1 [Example 11]	550 to 557 nM	591 to 599 nM
CCCCN(CCCC)C(=O)c1cc(C)n(-c2ccc(NC(=O)CNC(=O)c3cccnc3)cc2C(=O)N2Cc3ccccc3C[C@H]2CO)n1 [Example 125]	63.5 to 77.5 nM	88.7 to 103 nM
CCCCN(CCCC)C(=O)c1cc(C)n(-c2ccc(NC(=O)Cc3c(C)[nH]c4c(F)cccc34)cc2C(=O)N2Cc3ccccc3C[C@H]2CO)n1 [Example 63]	58.3 to 61.2 nM	67.4 to 76.1 nM
CCCCN(CCCC)C(=O)c1cc(C)n(-c2ccc(NC(=O)CCSc3ccc4ccccc4c3)cc2C(=O)N2Cc3ccccc3C[C@H]2CO)n1 [Example 64]	112 to 133 nM	138 to 149 nM
CCCCN(CCCC)C(=O)c1cc(C)n(-c2ccc(NC(=O)c3cn4ccsc4n3)cc2C(=O)N2Cc3ccccc3C[C@H]2CO)n1 [Example 102]	268 nM	364 to 394 nM
CCCCN(CCCC)C(=O)c1cc(C)n(-c2ccc(NC(=O)c3ncccc3O)cc2C(=O)N2Cc3ccccc3C[C@H]2CO)n1 [Example 62]	238 to 277 nM	318 to 326 nM
CCCCN(CCCC)C(=O)c1cc(C)n(-c2ccc(NC(=O)Cc3cccc(Cl)c3)cc2C(=O)N2Cc3ccccc3C[C@H]2CO)n1 [Example 76]	50.5 to 51.3 nM	59.8 to 59.9 nM
CCCCN(CCCC)C(=O)c1cc(C)n(-c2ccc(NC(=O)Cc3ccc(OC)c(OC)c3)cc2C(=O)N2Cc3ccccc3C[C@H]2CO)n1 [Example 136]	95.4 to 98.2 nM	119 to 123 nM
CCCCN(CCCC)C(=O)c1cc(C)n(-c2ccc(NC(=O)c3[nH]c4ccccc4c3-c3ccccc3)cc2C(=O)N2Cc3ccccc3C[C@H]2CO)n1 [Example 148]	595 to 598 nM	619 to 638 nM
CCCCN(CCCC)C(=O)c1cc(C)n(-c2ccc(NC(=O)c3cn(C)nc3C(F)(F)F)cc2C(=O)N2Cc3ccccc3C[C@H]2CO)n1 [Example 155]	729 to 935 nM	778 to 972 nM
CCCCN(CCCC)C(=O)c1cc(C)n(-c2ccc(NC(=O)C(C)c3ccc4ccccc4c3)cc2C(=O)N2Cc3ccccc3C[C@H]2CO)n1 (stereo partly drawn) [Example 114]	57.2 to 59.9 nM and 58.3 to 62 nM and 52.4 to 53.4 nM	61.9 to 73.1 nM and 64.1 to 72.9 nM and 51 to 54.5 nM
CCCCN(CCCC)C(=O)c1cc(C)n(-c2ccc(NC(=O)COc3ccc(C(C)C)cc3)cc2C(=O)N2Cc3ccccc3C[C@H]2CO)n1 [Example 18]	185 to 265 nM	192 to 252 nM
CCCCN(CCCC)C(=O)c1cc(C)n(-c2ccc(NC(=O)c3csc(-c4cccc(Cl)c4Cl)n3)cc2C(=O)N2Cc3ccccc3C[C@H]2CO)n1 [Example 144]	1260 to 1350 nM	2630 to 2750 nM
CCCCN(CCCC)C(=O)c1cc(C)n(-c2ccc(NC(=O)CC(CC(=O)O)c3ccccc3)cc2C(=O)N2Cc3ccccc3C[C@H]2CO)n1 (stereo partly drawn) [Example 16]	95.7 to 103 nM	119 to 126 nM
CCCCN(CCCC)C(=O)c1cc(C)n(-c2ccc(NC(=O)C3CC(=O)N(CCc4ccc(OC)c(OC)c4)C3)cc2C(=O)N2Cc3ccccc3C[C@H]2CO)n1 (stereo partly drawn) [Example 104]	252 to 256 nM	351 to 376 nM
CCCCN(CCCC)C(=O)c1cc(C)n(-c2ccc(NC(=O)Cc3ccccc3F)cc2C(=O)N2Cc3ccccc3C[C@H]2CO)n1 [Example 57]	63.1 to 66.9 nM	77.3 to 79.6 nM
CCCCN(CCCC)C(=O)c1cc(C)n(-c2ccc(NC(=O)Cc3ccccc3)cc2C(=O)N2Cc3ccccc3C[C@H]2CO)n1 [Example 5]	98 to 134 nM	95.9 to 129 nM
